Broadly, the EC50 is the midpoint of the concentration-response curve.

The test system of series [1] is Mutul-Hp-Luc cells. The series can be described thus: microbe, parasite or virus in culture. It is filed as cell-based, Epstein-Barr Virus (EBV). The text has this: BHLF1 promoter (Hp) or the BZ1F1 promoter (Zp) was cloned into pHEBO plasmid into Nhel and HindIII restriction sites of pHEBO-luc plasmid (Yates, 1985, Nature, 313:812-815; and Deng, 2001, J. Virol. 75:10334-10347). To create pHEBO-GFP, most of luciferase gene was excised by BsrGI and HindIII sites and replaced with EGFP excised from pEGFP-N1 (Clontech). Mutul cells were transfected with the new pHEBO-Zp-luc, pHEBO-Hp-luc (FIG. 8) or pHEBO-Hp-GFP constructs and transfected cells were selected with 400 μg/mL of Hygromycin. After 2 weeks of selection, stable hygromycin-resistant cells were seeded at 5000 per well in 384 well white plates and assayed as described below.
Columns 1, 2, 23, and 24 received DMSO (0.2% final concentration). The remaining 320 wells in columns 3-22 received test compounds at a final concentration of 10 μM cumulative concentration for the 5 compounds/2 μM individual compound concentration/0.2% final DMSO concentration. Cells were incubated with compounds for 48 h at 37° C./5% CO2. Twenty microliters of Steady-Glo® Luciferase Reagent (Promega) was added to assay plates and incubated for 15 minutes at room temperature. Plates were centrifuged and luminescence was measured on an EnVision® Excite multilabel microplate reader, using the ultrasensitive luminescence measurement technology (Perkin Elmer).
To confirm the activity of candidate compounds identified after deconvolution that exceeded the cutoff parameter, liquid stock from the screening library was retested as single compounds at a final concentration of 10 μM, using assay conditions identical to the primary high-throughput screen.
To eliminate confirmed actives that may interfere with the assay technology by inhibiting luciferase, the activity of the compounds were tested in a biochemical luciferase assay counterscreen (Auld, 2008, J. Med. Chem., 51:2372-2386). To quantitatively assess the activity and prioritize compounds for further follow-up, fresh liquid stocks prepared from powders were reformatted as a 10 point dilution series spanning at least 3-logs, starting at 10 μM, the initial screening concentration. Data for test compounds was normalized to DMSO and NaB (1 mM) plate controls to calculate fold stimulation and z-factor (σ is variance/standard deviations), μ is mean of positive (p) and negative (n) controls). Z-factor is a statistical measurement that assesses the quality of the assay and predicts if the assay can be useful in a high-throughput screening. Z factors above 0.5 are considered acceptable. The screen's Z-factor was above 0.
The relative EC50 for each compound, i.e., the concentration of compound that produced 50% of the maximum effect, was calculated using a […] non-linear regression analysis (GraphPad Prism® 6 software). Error bars represent SD for each concentration of a compound. To assist with decision making points, compound activities were stratified into 4 categories: […]

Series [2] deals with p38 MAPK, S6, p90RSK and p53 phosphorylation in Mutul cells. The series can be described thus: immunoblot for phosphorylation of p38 MAPK, S6, p90RSK and p53. It is filed as cell-based. The settings on record: 0.5 h. On the procedure:
(§1) FIGS. 7A-C are gels illustrating the mechanism of EBV reactivation of the compounds in distinct from HDAC inhibitors and TPA. FIG. 7A is Mutul cells treated with 2% DMSO, 2 mM NaB, 20 ng/mL TPA, or 1 μM compound for 48 h, immunoblotted, and probed for acetylation of histone H3 and β-actin. FIG. 7B is Mutu-LCL352 cells treated and probed as in described in FIG. 7A. FIG. 7C is Mutul cells treated with controls or compounds for 0.5 h, immunoblotted, and probed for phosphorylated forms of p90RSK, p53, p38MAPK, S6, total MAPK, and β-actin.
Cells were incubated with DMSO, 2 mM sodium butyrate (NaB), […] 12-O-tetradecanoyl phorbol-13-acetate (TPA) or 1 μM of compounds for 72 h, washed in PBS once and lysed in 1×Laemmii buffer. Protein extract equivalent to 10^5 cells were loaded on 8-16% SDS-PAGE gels (Invitrogen) and transferred to nitrocellulose membranes (Millipore). Lytic reactivation was detected with a rabbit polyclonal anti-ZTA and mouse monoclonal anti-EA-D (Abcam) antibodies diluted in 5% evaporated milk and incubated with the membranes for 2 h at RT, or overnight at 4° C., followed by secondary anti-mouse or rabbit HRP-conjugated (Roche). Rabbit antibodies against phospho-p38 MAPK, -S6, -p90RSK and -p53 West Pico were mixed into a PathScan® cocktail (Cell Signaling). […]

A further series concerns EBV positive BL cells. The settings on record: cited from earlier work.
For series [3] the following is noted: in vivo; cited from earlier work.
Series [4] has as its system histone H3 acetylation in Mutul and Mutu-LCL352 cells. In words: immunoblot for acetylation of histone H3. The series is classed as cell-based. Conditions: 48 h; 2 mM NaB or 1 μM compound. On the procedure: as §1
Mutul and Mutu-LCL352 cell lines were used to test whether the newly identified EBV activators function as […] by increasing acetylation on histone H3.
On the technique in general: A western blot detects proteins with antibodies after separation by electrophoresis.

Another series has as its system EBV positive Mutul cells. The series can be described thus: resazurin cytotoxicity assay with or without GCV. For orientation: The colour change of resazurin is a common sign of viable cells or microbes.
The next series relates to latent EBV. The settings on record: cited from earlier work.
For series [5], the system named is Mutul-Hp-Luc cells. It is filed as cell-based, Epstein-Barr Virus (EBV).
The subject of another series is Mutul cells. In words: cell viability by trypan blue dye exclusion, with or without GCV. It is filed as cell-based. The settings on record: 6 days, compounds at 1 μM.
Setting [6] is: Mutul-Hp-Luc cells, up to 2 mM NaB.
Where [7] appears, read: human gammaherpesvirus 4, read-out: EC50 values.

Where two headings read alike, the source gives them in different places.

Experimental for EBV positive Mutul cells: Mutul-Hp-Luc were seeded at 0.2 million per mL and treated with Compound 4. Compound 4 was added again 48 h. Freshly made GCV was added on Day 2 for 4 days twice a day, in the morning and 8 h later. Cell viability was measured either with Resazurin 5 days after the first Compound 4 treatment, or the cells were stained with Trypan blue on Day 6. […] Live cells were counted by the Trypan Blue stain exclusion method. […] Different concentrations of Compound 4 combined with GCV (gray bars) or without GCV (black bars) were used. Cell viability was measured as a percentage of DMSO-treated control cells. 590 nm fluorescence values are proportionate to the cell viability. Cells tested include EBV-positive Mutul (FIG. 6C), Akata (FIG. 6D), DG75 (FIG. 6E), and Mutu-LCL352 (FIG. 6F). Daily viability assay for Mutul cells treated with either DMSO, NaB, compound 4 (0.5 μM) with or without GCV was measured.
Assay plates were prepared by seeding 25,000 Mutul cells in 50 μL of RPMI supplemented with 15% FBS in 384 well tissue culture plates (Nunc). […] Cells were incubated for 5 days at 37° C./5% CO2 and viability was monitored by the addition of 20 μL of 500 μM resazurin (Sigma) and incubation for 4 h at 37° C. Plates were centrifuged and fluorescence intensity was measured at 590 nm on an Envision® Xcite multilabel microplate reader (Perkin Elmer). […]

In the case of `COc1ccc(C2NCCc3c2[nH]c2ccc(Cl)cc32)cc1` (centres unmarked) [Compound 11], in the series on Mutul-Hp-Luc cells [1] (human gammaherpesvirus 4, 48 h), the EC50 is under 500 nM. Turning to `CCCCCCCCCCCCCC(=O)O[C@@H]1[C@@H](C)[C@@]2(O)[C@@H](C=C(CO)C[C@]3(O)C(=O)C(C)=C[C@@H]23)[C@@H]2C(C)(C)[C@]12OC(C)=O` [TPA, 12-O-tetradecanoyl phorbol-13-acetate], the “phosphorylation of p38 MAPK, S6, p90RSK and p53” value in series [2] is “increase in phosphorylation”. In turn, `COc1ccc(C2c3[nH]c4ccc(Cl)cc4c3CCN2C(=O)c2ccc(Cl)cc2)cc1` (centres unmarked) [Compound 19] returned an EC50 in the series with Mutul-Hp-Luc cells [1] (human gammaherpesvirus 4, 48 h) of under 500 nM.

Turning to `COc1ccc(C2c3[nH]c4ccc(Cl)cc4c3CCN2S(=O)(=O)c2ccccc2OC)cc1` (centres unmarked) [Compound 25], the EC50 in the series on Mutul-Hp-Luc cells [1] (human gammaherpesvirus 4, 48 h) was over 500 nM.

Consider `CC(C)C[C@H](NC(=O)[C@H](Cc1ccccc1)NC(=O)c1cnccn1)B(O)O` [bortezomib], for which the “activation of latent EBV” value with EBV positive BL cells was “activator of latent EBV in a limited number of EBV positive BL cells”.

In the series on Mutul-Hp-Luc cells [1] (human gammaherpesvirus 4, 48 h), `COc1ccc(C2c3[nH]c4ccc(Cl)cc4c3CCN2C(=O)c2ccccc2C(F)(F)F)cc1` (centres unmarked) [Compound 16] yielded an EC50 of over 500 nM. Regarding `CCCC(=O)[O-].[Na+]` [NaB, sodium butyrate], the pharmacokinetics entry in series [3] is reported as “unsuitable pharmacokinetics”. For the same molecule, the “acetylation of histone H3” value in series [4] is recorded as “caused histone acetylation in both cell lines”. Moreover, the “synergy with GCV on killing EBV-positive cells” value in the series with EBV positive Mutul cells (Mutul cells, combination with 10 μg/mL GCV) is “did not synergize with GCV”. The toxicity to cells result with EBV positive Mutul cells (with or without GCV, daily resazurin) is reported as “toxic to cells regardless of EBV positive status”. In addition, the “concentrations required to trigger the latent to lytic switch” value in the series on latent EBV is “millimolar concentrations”. Moreover, the “cell viability on longer exposure” value with Mutul-Hp-Luc cells [5] (2 mM NaB, longer periods than 48 h) is “loss of cell viability”. Besides, in the series with Mutul-Hp-Luc cells [5] (setting [6]), the cell toxicity result is given as “relatively low cell toxicity” and the signal-to-background is 20-40 fold. Besides, in the series with Mutul-Hp-Luc cells [5] (pHEBO-Hp-Luc in Mutul cells, 2 mM NaB vs DMSO), the “luciferase response to NaB” value is recorded as over 20 fold. Take `COc1ccc(C2c3c(c4cc(Cl)ccc4n3C(=O)c3ccc(F)cc3)CCN2C(=O)c2ccc(F)cc2)cc1` (centres unmarked) [Compound 22]: the half-maximal effective concentration (EC50) with Mutul-Hp-Luc cells [1] (human gammaherpesvirus 4, 48 h) is under 500 nM; with Mutul-Hp-Luc cells [1] (setting [7]), 50 to 200 nM. The molecule `COc1ccc(C2c3[nH]c4ccc(Cl)cc4c3CCN2C(=O)c2c(Cl)cccc2Cl)cc1` (centres unmarked) [Compound 15] yielded an EC50 in the series with Mutul-Hp-Luc cells [1] (human gammaherpesvirus 4, 48 h) of over 500 nM.

Consider `COc1ccc(C2c3[nH]c4ccc(Cl)cc4c3CCN2C(=O)c2cccc(OC)c2)cc1` (centres unmarked) [Compound 12], for which the EC50 was under 500 nM in the series with Mutul-Hp-Luc cells [1] (human gammaherpesvirus 4, 48 h) and 50 to 200 nM in the series with Mutul-Hp-Luc cells [1] (setting [7]). Consider `COC(=O)c1ccccc1NC(=O)N1CCc2c([nH]c3ccc(Cl)cc23)C1c1ccc(OC)cc1` (centres unmarked) [Compound 10], for which the EC50 in the series with Mutul-Hp-Luc cells [1] (human gammaherpesvirus 4, 48 h) was under 500 nM; with Mutul-Hp-Luc cells [1] (setting [7]), 50 to 200 nM.

`COc1ccc(C2c3[nH]c4ccc(Cl)cc4c3CCN2C(=O)c2ccc(F)cc2)cc1` (centres unmarked) [Compound 18] came in with an EC50 with Mutul-Hp-Luc cells [1] (human gammaherpesvirus 4, 48 h) of over 500 nM. The molecule `COc1ccc(C2c3[nH]c4ccc(Cl)cc4c3CCN2C(=O)c2ccccc2F)cc1` (centres unmarked) [Compound 13] registered an EC50 in the series with Mutul-Hp-Luc cells [1] (human gammaherpesvirus 4, 48 h) of over 500 nM. For the molecule `COc1ccc(C2c3[nH]c4ccc(Cl)cc4c3CCN2C(=O)c2ccc(C(F)(F)F)cc2)cc1` (centres unmarked) [Compound 20], the concentration giving a half-maximal response (EC50) in the series on Mutul-Hp-Luc cells [1] (human gammaherpesvirus 4, 48 h) was under 500 nM.

`COc1ccc(C2c3[nH]c4ccc(Cl)cc4c3CCN2C(=O)c2ccccc2Cl)cc1` (centres unmarked) [Compound 14] returned an EC50 in the series on Mutul-Hp-Luc cells [1] (human gammaherpesvirus 4, 48 h) of over 500 nM. Consider `Nc1nc(O)c2ncn(COC(CO)CO)c2n1` [GCV, gancyclovir], for which the “reduction of cell viability as single agent” value in the series with Mutul cells is recorded as −10%. As for `COc1ccc(C(=O)N2CCc3c([nH]c4ccc(Cl)cc34)C2c2ccc(OC)cc2)cc1` (centres unmarked) [Compound 21], the EC50 is under 500 nM in the series on Mutul-Hp-Luc cells [1] (human gammaherpesvirus 4, 48 h) and 50 to 200 nM with Mutul-Hp-Luc cells [1] (setting [7]).

`COc1ccc(C2c3[nH]c4ccc(Cl)cc4c3CCN2S(=O)(=O)c2ccc(OC)cc2)cc1` (centres unmarked) [Compound 26] came in with a half-maximal effective concentration (EC50) in the series on Mutul-Hp-Luc cells [1] (human gammaherpesvirus 4, 48 h) of over 500 nM. As to arginine butyrate, in series [3], the “efficacy in clinical trial” value is “efficacious” and the “tolerability in clinical trial” value is “not tolerated due to toxicity”. For the same molecule, in the series on latent EBV, the “concentrations required to trigger the latent to lytic switch” value is on record as “millimolar concentrations”. As for `COc1ccc(C2c3[nH]c4ccc(Cl)cc4c3CCN2C(=O)c2ccccc2OC)cc1` (centres unmarked) [Compound 17], the EC50 with Mutul-Hp-Luc cells [1] (human gammaherpesvirus 4, 48 h) was over 500 nM. Still for that read-out and setting: for `COc1ccc(C2c3c(c4cc(Cl)ccc4n3C(=O)c3ccc(Cl)cc3)CCN2C(=O)c2ccc(F)cc2)cc1` (centres unmarked) [Compound 23] the value was over 500 nM.
